Data on six molecules can be found in patent publication US20250263388A1, “NOVEL COMPOUND BASED ON VALEROLACTONE AND MEDICINE” (priority 2018, published 2025).

A value given as a limit tells only on which side of the number the result lay.

For one data set, the system named is ALS. Conditions: cited from earlier work; for efficacy in clinical trials: ALS therapeutic drug candidates.
A further data set deals with NSC-34 cells. Put plainly: ROS assay. The format is cell-based, mouse. On the procedure:
The ROS assay is a test in which the test substances are evaluated for their ability to eliminate the ROS produced by a cell under stress. The ROS assay was performed by culturing NSC-34 cells in a medium from which serum (FBS) had been removed, and measuring the increased ROS produced at that time using CM-H2DCFDA.
NSC-34 cells were suspended in phenol red free DMEM medium, and NSC-34 cells were seeded at a target concentration of 4×10^4 cells/well in a 96-well plate at 200 μL/well.
Then, the medium was completely removed from the 96-well plate, DMEM ([-] phenol red) was added at 200 μL/well, and then the test substance dissolved in DMSO (or solvent only) was added at 0.4 μL/well. […] And placed in the incubator for 1 hour. One hour later, the fluorescence intensity (excitation wavelength 485 nm, fluorescence wavelength 520 nm) was measured using a fluorescence microplate reader.
The test was performed 2 to 4 times in quadruplicate. As a positive control, 30 μg/mL (120 μM) trolox was used. From the measurement result obtained with the test substance, the relative intensity to trolox was calculated by the following formula (1).

For data set [1], the system named is differentiated NSC-34 cells. Put plainly: ODAP-EA assay (reducing effect on motor excitotoxicity). The format is cell-based, mouse. The text has this:
ODAP-EA assay was invented by the present inventor as a test for measuring the reducing effect on motor exciotoxicity (Kusama-Eguchi K, et. al. Food Chem Toxicol., 49, 636-643 (2011)). In the ODAP-EA assay, differentiated NSC-34 cells were subjected to excitotoxicity in NSC-34 cells by adding ethacrynic acid (EA), which has a mitochondrial glutathione level-lowering effect, and L-β-ODAP, which is a neurotoxic amino acid. Then, the effect of reducing the excitotoxicity of the test substance is evaluated.
NSC34 cells were cultivated in a Rich medium in a […] until they became confluent, and then the Rich medium in the dish was removed. […] The replacement of the Poor medium once a day was repeated about 3 to 5 times to promote the differentiation of NSC-34 cells.
The NSC-34 cells differentiated as described above were suspended in Poor medium and seeded in a 96-well plate at a target concentration of 4×10^4 cells/well at 200 μL/well. […]
Then, 110 μL of the medium in the well plate was removed, 10 μL/well of AlamarBlue™ previously returned to room temperature was added, and the plate was placed in an incubator at 37° C. under 5% CO2 condition. After about 1 hour, the fluorescence intensity (excitation wavelength: 544 nm, fluorescence wavelength: 590 nm) was measured using a fluorescence plate reader. […]

Data set [2] relates to ALS model mice holding SOD1-G93A gene. Put plainly: Change in the body weight of ALS model mice, administration test 1. It is filed as in vivo. Conditions: 1 mg/kg and 10 mg/kg, oral once a day from 60 days after birth. On the procedure:
(§1) ALS model mice holding SOD1-G93A gene were used for the experiment. The first generation mouse was generated by bleeding a 6-week-old SOD1-G93A transgenic male (B6SJL-Tg (SOD1-G93A) 1Gur/J, imported from The Jackson Laboratory, USA) with 8-week-old C57BL/6J female mice (designated as F1 as shown below), and placed in the same cage for 1 week for mating.
(§2) Backcrossing was performed using the first backcross SOD1-G93A gene-bearing male mouse (FuBk1) and C57BL/6J female mouse (F1) produced as described above, and the resulting mouse carrying the SOD1-G93A gene was backcrossed with C57BL/6J female mice, which was the second mouse (FuBk2) They were used in the preliminary test described below. A male mouse (FuBk2) carrying the SOD1-G93A gene was further crossed with an F1 female mouse to prepare a third backcrossed mouse (FuBk3) and a fourth backcrossed mouse (FuBk4), which will be described later as the final examination.
Subject animal: The second backcrossed mice (FuBk2) holding SOD1-G93A were determined by genotyping, and were used for the treatment experiment from 60 days after birth (pre-symptomatic period). A total of 16 animals were used as test animals (n=16).
The test substance dissolved in DMSO was prepared at a concentration shown in Table 12 using a 2.5% DMSO (final concentration) solution as a solvent. […]
The body weight was measured twice a week. […]

For data set [3] the test system is unchanged. Put plainly: Motor performance (Rota-rod test) in ALS model mice. The format is in vivo, mouse. On the procedure: as §1
Backcrossing was performed using the first backcross SOD1-G93A gene-bearing male mouse (FuBk1) and C57BL/6J female mouse (F1) produced as described above, and the resulting mouse carrying the SOD1-G93A gene was backcrossed with C57BL/6J female mice, which was the second mouse (FuBk2) They were used in the preliminary test described below. […]
(§3) The test substance was evaluated based on two points: the survival days of mice and motor function. Regarding the number of days of survival, the number of days until the mouse was determined to be dead (including surrogate death) was evaluated. Motor function was evaluated by a motor test using the Rota-rod method.
In order to investigate the onset time of ALS-like symptoms in the test subject mouse, the motor function of the mouse was measured once a week by the Rota-rod method using a ROTA-ROD TREADMILL for MICE MK-600 (Muromachi). […] Those who fell twice in 300 seconds or less were regarded as mice showing the symptoms of motor inability, and the latency (seconds) until they fell was also measured. […]
On the technique in general: The rotarod test checks motor coordination on a turning rod.

Data set [4] shares this test system. Put plainly: Survival days (Kaplan-Meier) in ALS model mice. The format is in vivo, mouse. The procedure: as §1, §2, §3
A mouse that lost its righting reflex and could not return to the correct posture within 20 seconds was determined to be a surrogate death.
The test results were analyzed by the Kaplan-Meier method, and the p-value and median were obtained by the Log-Rank test or the Wilcoxon test. The latency between control and YY-1 group after developing of the motor inability was analyzed by T-test for each measuring point.
Of the third backcrossed mouse (FuBk3) carrying the SOD1-G93A gene, a total of 51 male and female mice determined to carry the SOD1-G93A gene by genotyping, and were used as test animals.
The test drug was prepared at a concentration shown in Table 14 using a 1% DMSO+2% Tween 20 solution as a solvent. The test substance was orally administered to mice using a sterilized disposable sonde. According to Table 13 above, the test substance in an amount corresponding to the body weight was […] administered to the mouse.
A total of 52 determined female mice were used as test animals.
The test substance was administered to the mouse once a day from 105 days after birth using a sterilized disposable oral probe at 0.1 mL/10 g (body weight) (10 mg/kg).

Data set [5] concerns SOD1-G93A-introduced N2a cells. Briefly: Dual-luciferase assay (SOD1-G93A gene introduced into N2a cells). Conditions: positive control resveratrol.
Where [6] appears, read: 5 mg/kg oral once a day from about 45 days after birth, FuBk3 mice, tendency, p=0.090.
Where [7] appears, read: 10 mg/kg oral once a day from 105 days after birth, FuBk4 mice, p=0.029.

With `CC(=O)N[C@@H](CS)C(=O)O` [N-acetylcysteine], the “efficacy in clinical trials” value with ALS is listed as “no efficacy”.
As for `C/C=C/C=C/[C@H]1OC(=O)CC[C@@H]1O` [YY-1, (5S,6R)-5-hydroxy-6-[(1E,3E)-penta-1,3-dien-1-yl] tetrahydro-2H-pyran-2-one], the “ROS scavenging action relative to trolox” value with NSC-34 cells (relative to 30 μg/mL (120 μM) trolox, serum-free medium, test substance 10, 30 or 100 μg/mL) is on record as “about 20%”. Moreover, the “ROS assay activity relative to 322-Ext at the same concentration” value in the data set on NSC-34 cells (same concentration as 322-Ext) is listed as “about 40%”. Also, in data set [1] (0.1 to 3.0 μg/mL (0.55 to 16.5 μM)), the “relative strength with respect to 4 mM NAC (highest)” value was no more than 20%. In addition, the ODAP-EA toxicity-reducing effect result in data set [1] (all concentrations of 0.1 to 100 μg/mL (0.55 to 550 μM)) is “strong ODAP-EA toxicity-reducing effect”. Also, the “toxicity to the ALS model mouse (presumed from body weight)” value in data set [2] was “no or low toxicity”. For the same molecule, the body weight change entry in data set [2] (FuBk2 male mice) is given as “no significant weight loss”. Besides, the “prolongation of development of motor disability vs control, median” value in data set [3] (5 mg/kg oral once a day from about 45 days after birth, FuBk3 mice, tendency, p=0.12) is 7 days. The “delay effect in motor dysfunction” value in data set [3] (10 mg/kg oral once a day from 105 days after birth, FuBk4 mice) is given as “about 7 days”. For the same molecule, in data set [4] (setting [6]), the “extension of survival days vs control, average value” is “about 5 days” and the “extension of survival days vs control, median value” was 8 days. Further, in data set [4] (setting [7]), the “prolongation of survival days vs control, mean value” is reported as “about 6 days” and the “prolongation of survival days vs control, median value” is 5 days. In addition, the “luminescence intensity in excess of the positive control” value in data set [5] (0.1 μg/mL (0.55 μM)) is listed as “about 40%”. Further, the “luminescence intensity in excess of the positive control” value in data set [5] (1 μg/mL (5.5 μM)) was “about 40%”.
For `COC1=C(OC)C(=O)C(C/C=C(\C)CC/C=C(\C)CC/C=C(\C)CC/C=C(\C)CC/C=C(\C)CC/C=C(\C)CC/C=C(\C)CC/C=C(\C)CC/C=C(\C)CCC=C(C)C)=C(C)C1=O` [coenzyme Q10], in the data set with ALS, the “efficacy in clinical trials” value is “no efficacy”.
With `N[C@@H](CCC(=O)N[C@@H](CS)C(=O)NCC(=O)O)C(=O)O` [glutathione], the “efficacy in clinical trials” value in the data set with ALS was “no efficacy”.
Consider `C/C1=C2/[N-][C@H]([C@H](CC(N)=O)[C@@]2(C)CCC(=O)NC[C@@H](C)OP(=O)([O-])O[C@H]2[C@@H](O)[C@@H](n3cnc4cc(C)c(C)cc43)O[C@@H]2CO)[C@]2(C)N=C(/C(C)=C3N=C(/C=C4N=C1[C@@H](CCC(N)=O)C\4(C)C)[C@@H](CCC(N)=O)[C@]\3(C)CC(N)=O)[C@@H](CCC(N)=O)[C@]2(C)CC(N)=O.[CH3-].[Co+3]` [methylcobalamin], for which, in the data set with ALS, the “efficacy in clinical trials” value is “no efficacy”.
“IGF-1: Insulin-like growth factor-1, protein expected to have an action of preventing motor nerve loss”: in the data set with ALS (Non-Patent Document 5), the “outcome of clinical trials (Phase 3)” value is on record as “unsuccessful”.
